In US6376670B1, “Quinoline-indole antimicrobial agents, uses and compositions related thereto” (Sepracor Inc., priority 1997, dated 2002):
Read-outs that look alike come from different tables or passages of the source.

How the values were obtained:
Assay in all cases: Determination of MIC values (BHI broth, 96 well microtiter plate)
Type in all cases: cell-based
[1] = test system: Streptococcus pneumoniae; details: for MIC: Streptococcus pneumoniae, read-out: MIC S. pneu
Outline: (§1)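 MIC was read as the lowest drug concentration without observable growth after roughly 16 h at 37 °C under about 7–10% CO2. Wells held BHI broth with compound at final 25–0.39 μg/mL (1:100 from DMSO dilutions). Each well was inoculated at 10^5–10^6 cells/mL.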

[2] = test system: methicillin-resistant Staphylococcus aureus (MRSA); details: Staphylococcus aureus, MRSA, read-out: MIC MRSA
Outline: as §1

[3] = test system: vancomycin-resistant Enterococcus spp. (VRE); details: Enterococcus, VRE, read-out: MIC VREF
Outline: as §1

[4] = BHI broth, 37° C., about 16 hours
[5] = 16 h, BHI broth, 37° C., about 16 hours
[6] = S. pneu, BHI broth, overnight 37° C.
[7] = VREF, BHI broth, overnight 37° C.
[8] = BHI broth, 37° C., overnight (about 16 hours)
[9] = 16 h, BHI broth, 37° C., overnight (about 16 hours)

Row | SMILES | MIC [1, 4] [µg/mL] | MIC [2, 5] [µg/mL] | MIC [3, 5] [µg/mL] | MIC [1, 6] [µg/mL] | MIC ([2]; BHI broth, overnight 37° C.) [µg/mL] | MIC [3, 7] [µg/mL] | also measured
1 | CN(CC#Cc1ccc2nc(-c3cn(C)c4ccc(Br)cc34)cc(C(=O)NCCN)c2c1)C1CCCCC1 [Example 407] | < 7 | < 7 | < 7 |  |  |  | 
2 | Clc1ccc2nc(-c3c[nH]c4ccc(Cl)cc34)ccc2c1 [Example 484] |  | < 7 | > 25 |  |  |  | MIC S. pneu [1, 4]: < 7 µg/mL
3 | Clc1ccc2c(-c3cc(Cl)c4ccccc4n3)c[nH]c2c1 [Example 343] |  |  |  | < 7 | < 7 | > 25 | 
4 | Cn1cc(-c2cc(C(=O)NC3CCC(N)CC3)c3ccc(I)cc3n2)c2cc(Br)ccc21 (stereo not drawn) [Example 333] |  |  |  | < 7 | < 7 | < 7 | 
5 | Fc1ccc2[nH]cc(-c3cc(Cl)c4ccccc4n3)c2c1 [Example 339] |  |  |  | < 7 | < 7 | < 7 | 
6 | Clc1ccc2c(Cl)cc(-c3c[nH]c4ccc(OCc5ccccc5)cc34)nc2c1 [Example 477] | < 7 | < 7 | > 25 |  |  |  | 
7 | Brc1ccc2[nH]cc(-c3ccc4ccccc4n3)c2c1 [Example 165] |  |  |  |  |  |  | MIC [1, 8]: < 7 µg/mL; MIC [2, 9]: < 7 µg/mL; MIC [3, 9]: < 7 µg/mL
8 | NCC1CCCC(CNC(=O)c2cc(-c3c[nH]c4ccc(Br)cc34)nc3c(Cl)c(Cl)ccc23)C1 (stereo not drawn) [Example 278] |  |  |  | < 7 | < 7 | < 7 | 
9 | NCc1ccc(CNC(=O)c2cc(-c3c[nH]c4ccc(Br)cc34)nc3c(C#CCN4CC=CCC4)cccc23)cc1 [Example 305] |  |  |  | < 7 | < 7 | < 7 | 
10 | COc1ccc2[nH]c(C)c(-c3ccc4cc(C)ccc4n3)c2c1 [Example 434] | > 25 | > 25 | > 25 |  |  |  | 
11 | CNCCN(C)C(=O)c1cc(-c2c[nH]c3ccc(Br)cc23)nc2cc(Cl)c(C#CCN3CCCCC3)cc12 [Example 513] | < 7 | < 7 | < 7 |  |  |  | 
12 | Cn1cc(-c2ccc3cc(Cl)ccc3n2)c2cc([N+](=O)[O-])ccc21 [Example 232] |  |  |  | < 7 | < 7 | < 7 | 
13 | NC(=O)c1cc(-c2c[nH]c3ccc(Br)cc23)nc2ccc(C#CCN3CCCCC3)cc12 [Example 483] | < 7 | < 7 | < 7 |  |  |  | 
14 | NCc1ccc(CNC(=O)c2cc(-c3c[nH]c4ccc(Br)cc34)nc3cc(Cl)c(I)cc23)cc1 [Example 158] |  |  |  |  |  |  | MIC [1, 8]: < 7 µg/mL; MIC [2, 9]: < 7 µg/mL; MIC [3, 9]: < 7 µg/mL
15 | CN(C)CCN(C)C(=O)c1cc(-c2c[nH]c3ccc(Br)cc23)nc2cc(Cl)c(C#CCN3CCCCC3)cc12 [Example 512] | < 7 | < 7 | < 7 |  |  |  | 
16 | Clc1ccc2nc(-c3c[nH]c4ccc(Br)cc34)ccc2c1 [Example 153] |  |  |  |  |  |  | MIC [1, 8]: < 7 µg/mL; MIC [2, 9]: < 7 µg/mL; MIC [3, 9]: > 25 µg/mL
17 | OCc1cc(-c2c[nH]c3ccc(Br)cc23)nc2c(Cl)cccc12 [Example 457] | < 7 | < 7 | < 7 |  |  |  | 
18 | Cn1cc(-c2cc(C(=O)NCc3cccc(CN)c3)c3ccccc3n2)c2cc(Br)ccc21 [Example 227] |  |  |  | < 7 | < 7 | < 7 | 
19 | NCCNC(=O)c1cc(-c2c[nH]c3ccc(Br)cc23)nc2cc(Cl)c(C#CCN3CCSCC3)cc12 [Example 528] | < 7 | < 7 | < 7 |  |  |  | 
20 | NCc1ccc(CNC(=O)c2cc(-c3c[nH]c4ccc(Br)cc34)nc3cc(F)ccc23)cc1 [Example 254] |  |  |  | < 7 | < 7 | < 7 | 
21 | Cc1cc2nc(-c3c[nH]c4ccc(Br)cc34)cc(C(=O)NCC3CCCC(CN)C3)c2cc1C (stereo not drawn) [Example 127] |  |  |  |  |  |  | MIC [1, 8]: < 7 µg/mL; MIC [2, 9]: < 7 µg/mL; MIC [3, 9]: < 7 µg/mL

Row | SMILES | MIC [1, 4] [µg/mL] | MIC [2, 5] [µg/mL] | MIC [3, 5] [µg/mL] | MIC [1, 6] [µg/mL] | MIC ([2]; BHI broth, overnight 37° C.) [µg/mL] | MIC [3, 7] [µg/mL] | also measured
22 | C[Si](C)(C)CCOC(=O)n1cc(-c2nc3ccc(Cl)cc3c3c2CCO3)c2cc(Br)ccc21 [Example 421] |  |  |  |  |  |  | MIC ([1]; 16 h): > 25 µg/mL; MIC ([2]; 16 h): > 25 µg/mL; MIC ([3]; 16 h): > 25 µg/mL
23 | NCCNC(=O)c1cc(-c2c[nH]c3ccc(Br)cc23)nc2c(Cl)c(Cl)ccc12 [Example 279] |  |  |  | < 7 | < 7 | < 7 | 
24 | NCc1ccc(CNC(=O)c2cc(-c3c[nH]c4ccc(Br)cc34)nc3ccc(C(F)(F)F)cc23)cc1 [Example 103] |  |  |  |  |  |  | MIC [1, 8]: < 7 µg/mL; MIC [2, 9]: < 7 µg/mL; MIC [3, 9]: < 7 µg/mL
25 | Cc1cccc2c(-c3ccc4cc(Cl)ccc4n3)c[nH]c12 [Example 291] |  |  |  | > 25 | > 25 | > 25 | 
26 | NCCNC(=O)c1cc(-c2c[nH]c3ccc(Br)cc23)nc2cc(Cl)c(I)cc12 [Example 294] |  |  |  | < 7 | < 7 | < 7 | 
27 | NCc1ccc(CNC(=O)c2cc(-c3c[nH]c4ccc(Br)cc34)nc3ccc(C#CCN4CC=CCC4)cc23)cc1 [Example 241] |  |  |  | < 7 | < 7 | < 7 | 
28 | NCC1CCCC(CNC(=O)c2cc(-c3c[nH]c4ccc(Br)cc34)nc3ccc(Br)cc23)C1 (stereo not drawn) [Example 123] |  |  |  |  |  |  | MIC [1, 8]: < 7 µg/mL; MIC [2, 9]: < 7 µg/mL; MIC [3, 9]: < 7 µg/mL
29 | Cn1cc(-c2cc(C(=O)NCc3ccc(CN)cc3)c3cc(C#CCN4CCc5ccccc5C4)ccc3n2)c2cc(Br)ccc21 [Example 394] |  |  |  | > 25 | > 25 | > 25 | 
30 | COc1ccc(NC(=O)c2cc(-c3c[nH]c4ccc(Br)cc34)nc3ccc(C#CCN4CCCCC4)cc23)cc1 [Example 485] | < 25 | < 7 | > 25 |  |  |  | 
31 | Clc1cc(-c2c[nH]c3ccccc23)nc2ccccc12 [Example 451] | < 7 | < 7 | > 25 |  |  |  | 
32 | Cn1cc(-c2cc(C(=O)O)c3ccc(F)cc3n2)c2cc(Br)ccc21 [Example 310] |  |  |  | < 25 | < 25 | > 25 | 
33 | NCc1ccc(CNC(=O)c2cc(-c3c[nH]c4ccc(Br)cc34)nc3cc(C#CCN4CCCCC4)ccc23)cc1 [Example 262] |  |  |  | < 7 | < 7 | < 7 | 
34 | Fc1ccc2c(CCl)cc(-c3c[nH]c4ccc(Br)cc34)nc2c1 [Example 508] | < 7 | < 7 | < 7 |  |  |  | 
35 | OCc1cc(-c2c[nH]c3ccc(Br)cc23)nc2cc(I)ccc12 [Example 453] | < 7 | < 7 | < 7 |  |  |  | 
36 | NCc1ccc(CNC(=O)c2cc(-c3c[nH]c4ccc(Br)cc34)nc3ccc(C#CCN4CCCC4)cc23)cc1 [Example 238] |  |  |  | < 7 | < 7 | < 25 | 
37 | NCc1ccc(CNC(=O)c2cc(-c3cnc4ccccc4c3)nc3ccc(I)cc23)cc1 [Example 151] |  |  |  |  |  |  | MIC [1, 8]: > 25 µg/mL; MIC [2, 9]: > 25 µg/mL; MIC [3, 9]: > 25 µg/mL
38 | Cn1cc(-c2cc(C(=O)NCc3cccc(CN)c3)c3cc(I)ccc3n2)c2cc(Br)ccc21 [Example 356] |  |  |  | < 7 | < 7 | < 7 | 
39 | NCCCNC(=O)c1cc(-c2c[nH]c3ccc(Br)cc23)nc2ccc(I)cc12 [Example 108] |  |  |  |  |  |  | MIC [1, 8]: < 7 µg/mL; MIC [2, 9]: < 7 µg/mL; MIC [3, 9]: < 7 µg/mL
40 | OCc1cc(-c2c[nH]c3ccc(Br)cc23)nc2ccc(Br)cc12 [Example 445] | < 7 | < 7 | < 7 |  |  |  | 
41 | COc1ccc(NC(=O)c2cc(-c3c[nH]c4ccc(Br)cc34)nc3ccc(I)cc23)cc1 [Example 174] |  |  |  |  |  |  | MIC [1, 8]: < 25 µg/mL; MIC [2, 9]: < 7 µg/mL; MIC [3, 9]: > 25 µg/mL
42 | Cn1cc(-c2cc(C(=O)NCCN)c3cc(C#CCNCCc4ccc(Cl)cc4)ccc3n2)c2cc(Br)ccc21 [Example 400] | < 7 | < 7 | < 7 |  |  |  | 
